According to patent US8026359B2, “Fungicidal heterocyclic amines” (E.I. du Pont de Nemours and Company, priority 2007, dated 2011):
Marks after values point to notes of the source that are not given here.

Key:
Assay type in all cases: in vivo
[1] = tested on: Puccinia recondita f. sp. tritici; assay: Test B: wheat leaf rust, preventive spray on wheat seedlings; conditions: 200 ppm, 100 = 100% disease control, 0 = no control relative to controls
Outline: (§1)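 Compounds dissolved in acetone (3% of final volume), then suspended in 50/50 acetone/purified water with 250 ppm Trem® 014 surfactant. Sprayed to run-off on seedlings as a 200 ppm (equivalent to 500 g/ha) or 40 ppm suspension, preventively.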

Plasmopara viticola = assay: Test R: grape downy mildew, preventive spray on grape seedlings; conditions: 100 ppm (100 g/ha, 1000 L/ha), inoculated the following day, 100 = 100% disease control, 0 = no control relative to controls
Excerpt: (§2) General protocol for preparing test suspensions for Tests A-R: The test compounds were first dissolved in acetone in an amount equal to 3% of the final volume and then suspended at the desired concentration (in ppm) in acetone and purified water (50/50 mix) containing 250 ppm of the surfactant Trem® 014 (polyhydric alcohol esters). The resulting test suspensions were then used in tests A-R. In Tests A-M, compounds were sprayed as a 200 ppm test suspension (equivalent to a rate of 500 g/ha) or as a 40 ppm test suspension to the point of runoff on the test plants. In Tests N-R, compounds were sprayed as a 100 g/ha test suspension (equivalent to a rate of 100 ppm) on the test plants at an application volume of 1000 L/ha. The test suspension was sprayed on grape seedlings. The following day the seedlings were inoculated with a spore suspension of Plasmopara viticola (the causal agent of grape downy mildew) and incubated in a saturated atmosphere at 20° C. for 24 h, then moved to a growth chamber at 20° C. for 7 days, after which time the test units were placed back into a saturated atmosphere at 20° C. for 24 h. Upon removal, disease ratings were made.

Fusarium graminearum = assay: whole plant or invertebrate; conditions: for Test E disease control rating: 200 ppm, 100 = 100% disease control, 0 = no control relative to controls
Venturia inaequalis = assay: Test O: apple scab, preventive spray on apple seedlings; conditions: 100 ppm (100 g/ha, 1000 L/ha), inoculated the following day, 100 = 100% disease control, 0 = no control relative to controls
Excerpt: as §2, with “apple” for “grape”, “seedlings.” for “seedlings. The following day the seedlings were inoculated with a spore suspension of Plasmopara viticola (the causal agent of grape downy mildew) and incubated in a saturated atmosphere at 20° C. for 24 h, then moved to a growth chamber at 20° C. for 7 days, after which time the test units were placed back into a saturated atmosphere at 20° C. for 24 h. Upon removal, disease ratings were made.”

Septoria nodorum = assay: Test C: wheat glume blotch, preventive spray on wheat seedlings; conditions: 200 ppm, 100 = 100% disease control, 0 = no control relative to controls
Outline: as §1

Alternaria solani = assay: Test H: tomato early blight, preventive spray on seedlings
Excerpt: (§3) General protocol for preparing test suspensions for Tests A-R: The test compounds were first dissolved in acetone in an amount equal to 3% of the final volume and then suspended at the desired concentration (in ppm) in acetone and purified water (50/50 mix) containing 250 ppm of the surfactant Trem® 014 (polyhydric alcohol esters). The resulting test suspensions were then used in tests A-R. In Tests A-M, compounds were sprayed as a 200 ppm test suspension (equivalent to a rate of 500 g/ha) or as a 40 ppm test suspension to the point of runoff on the test plants. In Tests N-R, compounds were sprayed as a 100 g/ha test suspension (equivalent to a rate of 100 ppm) on the test plants at an application volume of 1000 L/ha. The test suspension was sprayed to the point of run-off on wheat seedlings.

Magnaporthe grisea = conditions: 100 ppm (100 g/ha, 1000 L/ha), rice seedlings, inoculated the following day; 100 = 100% disease control, 0 = no control relative to controls
Uncinula necator = assay: Test N: grape powdery mildew, preventive spray on grape seedlings; conditions: 100 ppm (100 g/ha, 1000 L/ha), inoculated the following day, 100 = 100% disease control, 0 = no control relative to controls
Excerpt: as §3, with “sprayed” for “sprayed to the point of run-off”, “grape” for “wheat”

Septoria tritici = assay: Test D: wheat leaf blotch, preventive spray on wheat seedlings; conditions: 200 ppm, 100 = 100% disease control, 0 = no control relative to controls
Outline: as §1

[2] = tested on: Erysiphe graminis f. sp. tritici; assay: Test A: wheat powdery mildew, preventive spray on wheat seedlings
Outline: as §1

[3] = tested on: Colletotrichum orbiculare; assay: Test I: cucumber Colletotrichum anthracnose, preventive spray on cucumber seedlings; conditions: 100 = 100% disease control, 0 = no control relative to controls; for Test I disease control rating: 200 ppm
Outline: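 Compound was dissolved in acetone (3% of final volume), then suspended in 50/50 acetone/water with 250 ppm Trem 014 surfactant. Cucumber seedlings were sprayed to run-off as a preventive treatment at 200 ppm (equivalent to 500 g/ha) or 40 ppm.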

Rhizoctonia oryzae = assay: Test P: rice sheath blight, preventive spray on rice seedlings; conditions: 100 ppm (100 g/ha, 1000 L/ha), inoculated the following day, 100 = 100% disease control, 0 = no control relative to controls
Excerpt: as §3, with “sprayed” for “sprayed to the point of run-off”, “rice” for “wheat”

Botrytis cinerea = assay: Test F: tomato Botrytis, preventive spray on tomato seedlings; conditions: 200 ppm, 100 = 100% disease control, 0 = no control relative to controls
Outline: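 Compounds dissolved in acetone (3% of final volume), suspended in 50/50 acetone/water with 250 ppm Trem® 014. Sprayed preventively to run-off on tomato seedlings at 200 ppm (500 g/ha) or 40 ppm.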

[4] = 200 ppm, 100 = 100% disease control, 0 = no control relative to controls

| SMILES | Test R disease control rating (Plasmopara viticola) [%] | Test O disease control rating (Venturia inaequalis) [%] | Test Q disease control rating (Magnaporthe grisea) [%] | Test N disease control rating (Uncinula necator) [%] | Test P disease control rating (Rhizoctonia oryzae) [%] | Test B disease control rating [1] [%] | Test E disease control rating (Fusarium graminearum) [%] | Test C disease control rating (Septoria nodorum) [%] | Test H disease control rating (Alternaria solani; [4]) [%] | Test D disease control rating (Septoria tritici) [%] | Test F disease control rating (Botrytis cinerea) [%] | Test I disease control rating [3] [%] | other results |
| --- | --- | --- | --- | --- | --- | --- | --- | --- | --- | --- | --- | --- | --- |
| COCC(C)Nc1nccc(-c2ncnc(Nc3cccc(F)c3)n2)n1 (centres unmarked) [Compound 2, N-(3-fluorophenyl)-4-[2-[(2-methoxy-1-methylethyl)amino]-4-pyrimidinyl]-1,3,5-triazin-2-amine] | 60 | 95 | 93 | 89 | 100 |  |  |  |  |  |  |  | pest or weed control at 200 ppm ([1]; Puccinia recondita, 192 h, read-out: Test B disease control rating): 99%; pest or weed control at 200 ppm (Fusarium graminearum; Fusarium graminearum, in Triticum aestivum, 192 h, read-out: Test E disease control rating): 95%; pest or weed control at 200 ppm (Septoria nodorum; Parastagonospora nodorum, 216 h, read-out: Test C disease control rating): 99%; pest or weed control at 200 ppm (Alternaria solani; Alternaria solani, 168 h, 200 ppm, 100 = 100% disease control, 0 = no control relative to controls, read-out: Test H disease control rating): 97%; pest or weed control at 200 ppm (Septoria tritici; Zymoseptoria tritici, 504 h, read-out: Test D disease control rating): 71%; pest or weed control at 200 ppm ([2]; Blumeria graminis, 192 h, 200 ppm, 100 = 100% disease control, 0 = no control relative to controls, read-out: Test A disease control rating): 94%; pest or weed control at 200 ppm ([3]; Colletotrichum orbiculare, 144 h, read-out: Test I disease control rating): 99%; pest or weed control at 200 ppm (Botrytis cinerea; Botrytis cinerea, 120 h, read-out: Test F disease control rating): 93% |
| COC[C@H](C)Nc1nccc(-c2ncnc(Nc3cccc(Br)c3)n2)n1 [Compound 11] | 27 | 92 |  | 85 |  | 96 | 99 | 100 | 98 | 0 | 96 |  |  |
| COC[C@H](C)Nc1nccc(-c2ncnc(Nc3cccc(Cl)c3)n2)n1 [Compound 16] | 40 | 76 |  | 99 |  | 99 | 99 | 99 | 98 | 71 | 96 | 97 |  |
| COC[C@H](C)Nc1nccc(-c2ncnc(Nc3cccc(C#N)c3)n2)n1 [Compound 18] | 86 | 83 | 100 | 99 | 100 | 100 | 85 | 100 |  | 0 | 95 | 99 | Test H disease control rating (Alternaria solani; 40 ppm (marked *)): 89* % |
| COC[C@H](C)Nc1nccc(-c2ncnc(Nc3cccc(C)c3)n2)n1 [Compound 19] | 73 | 33 |  | 95 |  | 97 | 97 | 100 | 93 | 87 | 99 | 99 |  |
| COC[C@H](C)Nc1nccc(-c2ncnc(Nc3ccc(F)c(Cl)c3)n2)n1 [Compound 23] | 30 | 99 |  | 61 |  | 98 | 98 | 100 |  | 13 | 90 | 99 | Test H disease control rating (Alternaria solani; 40 ppm (marked *)): 100* %; Test A disease control rating ([2]; 40 ppm (marked *)): 0* % |
| COC[C@H](C)Nc1nccc(-c2ncnc(Nc3ccc(C)c(F)c3)n2)n1 [Compound 25] | 86 | 59 |  | 99 |  | 99 | 99 | 100 | 99 | 16 | 63 |  |  |
| COC[C@H](C)Nc1nccc(-c2ncnc(Nc3ccc(C)c([N+](=O)[O-])c3)n2)n1 [Compound 26] | 96 | 96 |  | 69 |  | 98 | 98 | 100 | 91 | 2 | 17 |  |  |
| COC[C@H](C)Nc1nccc(-c2ccnc(Nc3cccc(F)c3)c2)n1 [Compound 56] | 97 | 75 | 98 | 64 | 100 | 99 | 90 | 99 |  | 82 | 99 | 90 | Test A disease control rating [2, 4]: 84% |
